# From patent publication US20250049025A1, “SURFACTANTS FOR USE IN AGRICULTURAL FORMULATIONS” (AdvanSix Resins & Chemicals LLC, priority 2023, published 2025)
# Where two headings read alike, the source gives them in different places.
# Legend:
# [1] = Critical micelle concentration and minimum surface tension from surface tension versus concentration in water (Wilhelmy plate method); assay type: physicochemical; settings: for critical micelle concentration (CMC) / plateau value of minimum surface tension: in water; for interfacial activity / surfactant properties (in words): judged from CMC and minimum surface tension
# Description: These properties may be measured and described by various methods. One method by which surfactants may be described is by the molecule's critical micelle concentration (CMC). CMC may be defined as the concentration of a surfactant at which micelles form, and above which all additional surfactant is incorporated into micelles.
# As surfactant concentration increases, surface tension decreases. Once the surface is completely overlaid with surfactant molecules, micelles begin to form. This point represents the CMC, as well as the minimum surface tension. Further addition of surfactant will not further affect the surface tension. CMC may therefore be measured by observing the change in surface tension as a function of surfactant concentration. One such method for measuring this value is the Wilhemy plate method. A Wilhelmy plate is usually a thin iridium-platinum plate attached to a balance by a wire and placed perpendicularly to the air-liquid interface. The balance is used to measure the force exerted on the plate by wetting. This value is then used to calculate the surface tension (γ) according to Equation 1: […]
# wherein I is equal to the wetted perimeter (2w+2d, in which w and d are the plate thickness and width, respectively) and cos θ, the contact angle between the liquid and the plate, is assumed to be 0 in the absence of an extant literature value.
# Nuclear magnetic resonance (NMR) spectroscopy was performed on a Bruker 500 MHz spectrometer. The critical micelle concentration (CMC) was determined by the Wilhelmy plate method at 23° C. with a tensiometer (DCAT 11, DataPhysics Instruments GmbH) equipped with a Pt—Ir plate. Dynamic surface tension was determined with a bubble pressure tensiometer (Krüss BP100, Krüss GmbH), at 23° C. Contact angle was determined with the optical contact angle goniometer (OCA 15 Pro, DataPhysics GmbH) equipped with a digital camera.
# S. aureus (6538) = assay: Minimum inhibitory concentration (MIC) test, serial dilution; assay type: cell-based, Staphylococcus aureus
# Description: (§1) Surfactants of the present disclosure have been shown in a standard protocol to assess antimicrobial activities called minimum inhibitory concentration (MIC) tests.
# (§2) The antimicrobial properties of surfactants were examined using known methods and standard protocols, and various types of microorganisms as treatment targets. More specifically a minimum inhibitory concentration (MIC) test protocol was applied, using serial dilution method, giving concentration-dependent microorganism growth inhibition measurements against gram positive (e.g., Streptococcus mutans, which is anaerobic, and Staphylococcus aureus, which is usually aerobic but can grow also anaerobically), gram negative (e.g., Escherichia coli, which is anaerobic, or Pseudomonas aeruginosa, which is aerobic).
# (§3) Bacteria were propagated overnight in a suitable growth medium, which was a Tryptic Soy Broth. Prior to testing, the concentrations of the test organisms were established using a spectrophotometer that can measure optical density. Those bacterial samples were then diluted to about 1E3 to 1E4 CFU/mL. Thereafter, […] of the bacterial cultures thus prepared were inoculated into test wells of a 96-well plate, each containing suitable growth media, which was Tryptic Soy Agar, and once the bacterial cultures were inoculated, these wells were then treated with the test specimen, serially diluted, incubated at a temperature of 37+/−1° C. and relative humidity of not less than 90% for about 24+/−1 hour.
# (§4) Test surfactants were prepared into dilution series. All dilutions were conducted serially using a multichannel pipetter into 96-well microtiter plates.
# (§5) The MIC was then used to determine the approximate concentration of the test surfactant at which there was inhibition of bacterial growth. […]
# (§6) Test measurements were made on replicate 96-well plates, and reported as the rounded whole number average of the determined MIC. […] Measurement variability was then reported based on the determined average in the form of MIC+/−.
# S. mutans (25715) = assay: as above; assay type: cell-based, Streptococcus mutans
# Description: as §1, §2, §3, §4, §5, §6
# P. aeruginosa (9027) = assay: as above; assay type: cell-based, Pseudomonas aeruginosa; settings: 24 hours, serial dilution 1.7 fold, 400 ppm max
# Description: as §1, §2
# (§7) Bacteria were propagated overnight in a suitable growth medium, which was a Tryptic Soy Broth. Prior to testing, the concentrations of the test organisms were established using a spectrophotometer that can measure optical density. Those bacterial samples were then diluted to about 1E3 to 1E4 CFU/mL. […]
# as §6
# E. coli (8739) = assay: as above; assay type: cell-based, Escherichia coli; settings: 24 hours, serial dilution 1.7 fold
# Description: as §1, §2, §7, §6
# [2] = 24 hours, serial dilution 1.7 fold, 20 ppm max
Structure (SMILES),critical micelle concentration (CMC) ([1]; 23° C.),plateau value of minimum surface tension ([1]; 23° C.),interfacial activity / surfactant properties (in words) [1],other results
"C#CC[N+](C)(C)CCCCCC(=O)NCCC[Si](O[Si](C)(C)C)(O[Si](C)(C)C)O[Si](C)(C)C [Surfactant 4, 6-((3-(1,1,1,5,5,5-hexamethyl-3-((trimethylsilyl)oxy)trisiloxan-3-yl)propyl)amino)-N,N-dimethyl-6-oxo-N-(prop-2-yn-1-yl)hexan-1-aminium bromide]",about 0.2419 mmol,about 20.54 mN/m,outstanding interfacial activity,
"C[N+](C)(CCCCCC(=O)NCCC[Si](O[Si](C)(C)C)(O[Si](C)(C)C)O[Si](C)(C)C)CCC[N+](C)(C)CCCCCC(=O)NCCC[Si](O[Si](C)(C)C)(O[Si](C)(C)C)O[Si](C)(C)C [Surfactant 10, N^1,N^3-bis(6-((3-(1,1,1,5,5,5-hexamethyl-3-((trimethylsilyl)oxy)trisiloxan-3-yl)propyl)amino)-6-oxohexyl)-N^1,N^1,N^3,N^3-tetramethylpropane-1,3-diaminium dibromide]",about 0.0631 mmol,about 22.12 mN/m,has interfacial activity,
"COCCOCC[N+](C)(C)CCCCCC(=O)NCCC[Si](O[Si](C)(C)C)(O[Si](C)(C)C)O[Si](C)(C)C [Surfactant 5, 6-((3-(1,1,1,5,5,5-hexamethyl-3-((trimethylsilyl)oxy)trisiloxan-3-yl)propyl)amino)-N-(2-(2-methoxyethoxy)ethyl)-N,N-dimethyl-6-oxohexan-1-aminium bromide]",about 0.4622 mmol,about 20.40 mN/m,outstanding interfacial activity,
"C[N+](C)(CCO)CCCCCC(=O)NCCC[Si](O[Si](C)(C)C)(O[Si](C)(C)C)O[Si](C)(C)C [Surfactant 8, 6-((3-(1,1,1,5,5,5-hexamethyl-3-((trimethylsilyl)oxy)trisiloxan-3-yl)propyl)amino)-N-(2-hydroxyethyl)-N,N-dimethyl-6-oxohexan-1-aminium iodide]",about 0.9986 mmol,about 20.41 mN/m,outstanding interfacial activity,
"CCOC(=O)C[N+](C)(C)CCCCCC(=O)NCCC[Si](O[Si](C)(C)C)(O[Si](C)(C)C)O[Si](C)(C)C [Surfactant 2, N-(2-ethoxy-2-oxoethyl)-6-((3-(1,1,1,5,5,5-hexamethyl-3-((trimethylsilyl)oxy)trisiloxan-3-yl)propyl)amino)-N,N-dimethyl-6-oxohexan-1-aminium bromide]",about 0.2171 mmol,around 20.36 mN/m,outstanding interfacial activity,
"CCOP(=O)(CCC[N+](C)(C)CCCCCC(=O)NCCC[Si](O[Si](C)(C)C)(O[Si](C)(C)C)O[Si](C)(C)C)OCC [Surfactant 6, N-(3-(diethoxyphosphoryl)propyl)-6-((3-(1,1,1,5,5,5-hexamethyl-3-((trimethylsilyl)oxy)trisiloxan-3-yl)propyl)amino)-N,N-dimethyl-6-oxohexan-1-aminium bromide]",about 0.3989 mmol,about 20.48 mN/m,outstanding interfacial activity,"MIC (S. aureus (6538); Staphylococcus aureus, 24 h): 138 µg/mL; MIC (S. mutans (25715); Streptococcus mutans, 24 h): 81 µg/mL"
"C[N+](C)(CCCCCC(=O)NCCC[Si](O[Si](C)(C)C)(O[Si](C)(C)C)O[Si](C)(C)C)Cc1ccccc1 [Surfactant 1, N-benzyl-6-((3-(1,1,1,5,5,5-hexamethyl-3-((trimethylsilyl)oxy)trisiloxan-3-yl)propyl)amino)-N,N-dimethyl-6-oxohexan-1-aminium bromide]",,around 20.67 mN/m,outstanding interfacial activity,"critical micelle concentration (CMC) ([1]; pH 8, 23° C.): about 9.883 mmol"
"C=CC[N+](C)(C)CCCCCC(=O)NCCC[Si](O[Si](C)(C)C)(O[Si](C)(C)C)O[Si](C)(C)C [Surfactant 3, N-allyl-6-((3-(1,1,1,5,5,5-hexamethyl-3-((trimethylsilyl)oxy)trisiloxan-3-yl)propyl)amino)-N,N-dimethyl-6-oxohexan-1-aminium iodide]",about 1.3599 mmol,about 20.67 mN/m,outstanding interfacial activity,
"CCCCCCCCCCCCCC[N+](C)(C)Cc1ccccc1.[Cl-] [ADBAC, reference compound]",,,,MIC (P. aeruginosa (9027)): 48 +/− 20 ppm; MIC (S. aureus (6538); [2]): 7 +/− 3 ppm; MIC (E. coli (8739); 20 ppm max): 16 +/− 7 ppm; MIC (S. mutans (25715); [2]): 7 +/− 3 ppm
"C[N+](C)(CCCCCC(=O)O)CCCCCC(=O)NCCC[Si](O[Si](C)(C)C)(O[Si](C)(C)C)O[Si](C)(C)C [Surfactant 9, N-(5-carboxypentyl)-6-((3-(1,1,1,5,5,5-hexamethyl-3-((trimethylsilyl)oxy)trisiloxan-3-yl)propyl)amino)-N,N-dimethyl-6-oxohexan-1-aminium bromide]",about 0.2237 mmol,about 20.52 mN/m,excellent interfacial activity,"MIC (S. aureus (6538); Staphylococcus aureus, 24 hours, serial dilution 1.7 fold, 400 ppm max, read-out: MIC): 138 µg/mL; MIC (S. mutans (25715); Streptococcus mutans, 24 hours, serial dilution 1.7 fold, 400 ppm max, read-out: MIC): 81 µg/mL"
"C[N+](C)(CCCO)CCCCCC(=O)NCCC[Si](O[Si](C)(C)C)(O[Si](C)(C)C)O[Si](C)(C)C [Surfactant 7, 6-((3-(1,1,1,5,5,5-hexamethyl-3-((trimethylsilyl)oxy)trisiloxan-3-yl)propyl)amino)-N-(3-hydroxypropyl)-N,N-dimethyl-6-oxohexan-1-aminium iodide]",about 0.4568 mmol,about 20.61 mN/m,outstanding interfacial activity,"MIC (P. aeruginosa (9027); Pseudomonas aeruginosa, read-out: MIC): 81 µg/mL; MIC (E. coli (8739); Escherichia coli, 400 ppm max, read-out: MIC): 81 µg/mL"
"C[N+](C)(CCCCCC(=O)NCCC[Si](O[Si](C)(C)C)(O[Si](C)(C)C)O[Si](C)(C)C)CC(=O)O [Comparative Surfactant, N-(carboxymethyl)-6-((3-(1,1,1,5,5,5-hexamethyl-3-((trimethylsilyl)oxy)trisiloxan-3-yl)propyl)amino)-N,N-dimethyl-6-oxohexan-1-aminium bromide, reference compound]",about 17.28 mmol,about 29.16 mN/m,inferior surfactant properties,
